#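 Step 1: Grow cells in 96-well plates. Step 2: Expose to compound for 48 hours at 5 concentrations. Step 3: Interpolate endpoints linearly; if unreached, use highest concentration. TGI: total growth inhibition.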
# Tests used:
# Experiment in all cases: NCI anticancer screen, dose series, 48 h
# 786-0 renal = test system: 786-0 renal
# A498 renal = test system: A498 renal
# A549 NSCLC = test system: A549 NSCLC
# ACHN renal = test system: ACHN renal
# BT-549 breast = test system: BT-549 breast
# CAKI-1 renal = test system: CAKI-1 renal
# CCRF-CEM leukemia = test system: CCRF-CEM leukemia
# COLO 205 colon = test system: COLO 205 colon
# DU-145 prostate = test system: DU-145 prostate
# EKVX NSCLC = test system: EKVX NSCLC
# HCC-2998 colon = test system: HCC-2998 colon
# HCT-116 colon = test system: HCT-116 colon
# HCT-15 colon = test system: HCT-15 colon
# HL-60(TB) leukemia = test system: HL-60(TB) leukemia
# HOP-62 NSCLC = test system: HOP-62 NSCLC
# HOP-92 NSCLC = test system: HOP-92 NSCLC
# HS 578T breast = test system: HS 578T breast
# HT29 colon = test system: HT29 colon
# IGROV1 ovarian = test system: IGROV1 ovarian
# K-562 leukemia = test system: K-562 leukemia
# KM12 colon = test system: KM12 colon
# LOX IMVI melanoma = test system: LOX IMVI melanoma
# M14 melanoma = test system: M14 melanoma
# MALME-3M melanoma = test system: MALME-3M melanoma
# MCF7 breast = test system: MCF7 breast
# MDA-MB-231 breast = test system: MDA-MB-231 breast
# MDA-MB-435 = test system: MDA-MB-435
# MDA-N = test system: MDA-N
# MOLT-4 leukemia = test system: MOLT-4 leukemia
# NCI-H226 lung = test system: NCI-H226 lung
# NCI-H23 lung = test system: NCI-H23 lung
# NCI-H460 lung = test system: NCI-H460 lung
# NCI-H522 lung = test system: NCI-H522 lung
# NCI/ADR-RES ovarian = test system: NCI/ADR-RES ovarian
# OVCAR-3 ovarian = test system: OVCAR-3 ovarian
# OVCAR-4 ovarian = test system: OVCAR-4 ovarian
# OVCAR-5 ovarian = test system: OVCAR-5 ovarian
# OVCAR-8 ovarian = test system: OVCAR-8 ovarian
# PC-3 prostate = test system: PC-3 prostate
# RPMI-8226 leukemia = test system: RPMI-8226 leukemia
# RXF 393 renal = test system: RXF 393 renal
# SF-268 CNS = test system: SF-268 CNS
# SF-295 CNS = test system: SF-295 CNS
# SF-539 CNS = test system: SF-539 CNS
# SK-MEL-2 melanoma = test system: SK-MEL-2 melanoma
# SK-MEL-28 melanoma = test system: SK-MEL-28 melanoma
# SK-MEL-5 melanoma = test system: SK-MEL-5 melanoma
# SK-OV-3 ovarian = test system: SK-OV-3 ovarian
# SN12C renal = test system: SN12C renal
# SNB-19 CNS = test system: SNB-19 CNS
# SR leukemia = test system: SR leukemia
# SW-620 colon = test system: SW-620 colon
# T-47D breast = test system: T-47D breast
# TK-10 renal = test system: TK-10 renal
# U251 CNS = test system: U251 CNS
# UACC-257 melanoma = test system: UACC-257 melanoma
# UACC-62 melanoma = test system: UACC-62 melanoma
# UO-31 renal = test system: UO-31 renal
# DMS 114 small cell lung = test system: DMS 114 small cell lung
# DMS 273 small cell lung = test system: DMS 273 small cell lung
# KM20L2 colon = test system: KM20L2 colon
# LXFL 529 NSCLC = test system: LXFL 529 NSCLC
# XF 498 CNS = test system: XF 498 CNS
smiles,measurement,setting,value
C=CCC1(C)CCCN(Cc2ccccc2)C1=O (stereo unspecified),TGI,786-0 renal,> 10 µM
same,TGI,A498 renal,3.91 µM
same,TGI,A549 NSCLC,> 10 µM
same,TGI,ACHN renal,> 10 µM
same,TGI,BT-549 breast,> 10 µM
same,TGI,CAKI-1 renal,> 10 µM
same,TGI,CCRF-CEM leukemia,> 10 µM
same,TGI,COLO 205 colon,> 10 µM
same,TGI,DU-145 prostate,> 10 µM
same,TGI,EKVX NSCLC,> 10 µM
same,TGI,HCC-2998 colon,> 10 µM
same,TGI,HCT-116 colon,> 10 µM
same,TGI,HCT-15 colon,> 10 µM
same,TGI,HL-60(TB) leukemia,> 10 µM
same,TGI,HOP-62 NSCLC,> 10 µM
same,TGI,HOP-92 NSCLC,> 10 µM
same,TGI,HS 578T breast,> 10 µM
same,TGI,HT29 colon,> 10 µM
same,TGI,IGROV1 ovarian,3.41 µM
same,TGI,K-562 leukemia,> 10 µM
same,TGI,KM12 colon,> 10 µM
same,TGI,LOX IMVI melanoma,> 10 µM
same,TGI,M14 melanoma,> 10 µM
same,TGI,MALME-3M melanoma,> 10 µM
same,TGI,MCF7 breast,> 10 µM
same,TGI,MDA-MB-231 breast,> 10 µM
same,TGI,MDA-MB-435,> 10 µM
same,TGI,MDA-N,> 10 µM
same,TGI,MOLT-4 leukemia,> 10 µM
same,TGI,NCI-H226 lung,> 10 µM
same,TGI,NCI-H23 lung,> 10 µM
same,TGI,NCI-H460 lung,> 10 µM
same,TGI,NCI-H522 lung,> 10 µM
same,TGI,NCI/ADR-RES ovarian,> 10 µM
same,TGI,OVCAR-3 ovarian,> 10 µM
same,TGI,OVCAR-4 ovarian,> 10 µM
same,TGI,OVCAR-5 ovarian,> 10 µM
same,TGI,OVCAR-8 ovarian,> 10 µM
same,TGI,PC-3 prostate,> 10 µM
same,TGI,RPMI-8226 leukemia,> 10 µM
same,TGI,RXF 393 renal,> 10 µM
same,TGI,SF-268 CNS,> 10 µM
same,TGI,SF-295 CNS,> 10 µM
same,TGI,SF-539 CNS,> 10 µM
same,TGI,SK-MEL-2 melanoma,> 10 µM
same,TGI,SK-MEL-28 melanoma,> 10 µM
same,TGI,SK-MEL-5 melanoma,1.48 µM
same,TGI,SK-OV-3 ovarian,> 10 µM
same,TGI,SN12C renal,> 10 µM
same,TGI,SNB-19 CNS,> 10 µM
same,TGI,SR leukemia,> 10 µM
same,TGI,SW-620 colon,> 10 µM
same,TGI,T-47D breast,> 10 µM
same,TGI,TK-10 renal,> 10 µM
same,TGI,U251 CNS,> 10 µM
same,TGI,UACC-257 melanoma,> 10 µM
same,TGI,UACC-62 melanoma,> 10 µM
same,TGI,UO-31 renal,> 10 µM
ClC1=C(Cl)C(Cl)(Cl)c2c3c(c4c(c21)C(Cl)(Cl)C(Cl)=C4Cl)C(Cl)(Cl)C(Cl)=C3Cl,TGI,786-0 renal,> 100 µM
same,TGI,A549 NSCLC,> 100 µM
same,TGI,ACHN renal,> 100 µM
same,TGI,CCRF-CEM leukemia,> 100 µM
same,TGI,COLO 205 colon,> 100 µM
same,TGI,DMS 114 small cell lung,> 100 µM
same,TGI,DMS 273 small cell lung,> 100 µM
same,TGI,EKVX NSCLC,> 100 µM
same,TGI,HCC-2998 colon,> 100 µM
same,TGI,HCT-116 colon,> 100 µM
same,TGI,HCT-15 colon,> 100 µM
same,TGI,HL-60(TB) leukemia,> 100 µM
same,TGI,HOP-62 NSCLC,> 100 µM
same,TGI,HT29 colon,> 100 µM
same,TGI,IGROV1 ovarian,> 100 µM
same,TGI,K-562 leukemia,> 100 µM
same,TGI,KM12 colon,> 100 µM
same,TGI,KM20L2 colon,> 100 µM
same,TGI,LOX IMVI melanoma,> 100 µM
same,TGI,LXFL 529 NSCLC,> 100 µM
same,TGI,M14 melanoma,> 100 µM
same,TGI,MALME-3M melanoma,> 100 µM
same,TGI,MOLT-4 leukemia,> 100 µM
same,TGI,NCI-H226 lung,> 100 µM
same,TGI,NCI-H23 lung,> 100 µM
same,TGI,NCI-H460 lung,> 100 µM
same,TGI,NCI-H522 lung,> 100 µM
same,TGI,OVCAR-3 ovarian,> 100 µM
same,TGI,OVCAR-8 ovarian,> 100 µM
same,TGI,RPMI-8226 leukemia,> 100 µM
same,TGI,SF-268 CNS,> 100 µM
same,TGI,SF-295 CNS,> 100 µM
same,TGI,SF-539 CNS,> 100 µM
same,TGI,SK-MEL-28 melanoma,> 100 µM
same,TGI,SK-MEL-5 melanoma,> 100 µM
same,TGI,SK-OV-3 ovarian,> 100 µM
same,TGI,SN12C renal,> 100 µM
same,TGI,SNB-19 CNS,> 100 µM
same,TGI,SR leukemia,> 100 µM
same,TGI,SW-620 colon,> 100 µM
same,TGI,U251 CNS,> 100 µM
same,TGI,UACC-257 melanoma,> 100 µM
same,TGI,XF 498 CNS,> 100 µM

# From PubChem BioAssay (NCI)
